Literature values in patent publication US20240000809A1, “IMPROVED USE OF CANNABINOIDS IN THE TREATMENT OF EPILEPSY” (ORCOSA INC., priority 2020, published 2024).

Settings: ingested orally, extensive first pass metabolism

C=C(C)[C@@H]1CCC(C)=C[C@H]1c1c(O)cc(CCCCC)cc1O [CBD, cannabidiol]
bioavailability: 6 to 11%
